{"source": "patent US10112941B2", "about": "“Tricyclic compounds as anticancer agents” (BRISTOL-MYERS SQUIBB COMPANY, priority 2013, dated 2018)"}
{"biological_target": "BRD4 (Homo sapiens, UniProt O60885)", "experiment": "Time Resolved Fluorescence Resonance Energy Transfer (TR-FRET) binding assay, BRD4", "details": "one of the FRET assays described; read-out: FRET BRD4 IC50", "units": {"IC50": "nM"}}
{"smiles": "Cc1nnn(C)c1-c1cnc2c3ccc(C(C)(O)CO)cc3n([C@H](c3ccccc3)C3CCOCC3)c2c1", "note": "(stereo partly drawn) [Example 424, 2-[3-(Dimethyl-1H-1,2,3-triazol-5-yl)-5-[(S)-oxan-4-yl(phenyl)methyl]-5H-pyrido[3,2-b]indol-7-yl]propane-1,2-diol]", "IC50": "< 5"}
{"smiles": "Cc1noc(C)c1-c1cnc2c3ccc(C(O)CC#N)cc3n([C@H](c3ccccc3)C3CCOCC3)c2c1", "note": "(single isomer, unassigned) [Example 374]", "IC50": "< 5"}
{"smiles": "Cc1noc(C)c1-c1cnc2c3ccc(C(C)(C)O)cc3n([C@H](c3ccccc3)C3CC3)c2c1", "note": "[Example 11]", "IC50": "< 25"}
{"smiles": "COC(=O)NC(C)(C)c1ccc2c3ncc(-c4c(C)nnn4C)cc3n([C@H](c3ccccc3)C3CCOCC3)c2c1", "note": "[Example 412, Methyl N-{2-[3-(dimethyl-1H-1,2,3-triazol-5-yl)-5-[(S)-oxan-4-yl(phenyl)methyl]-5H-pyrido[3,2-b]indol-7-yl]propan-2-yl}carbamate]", "IC50": "< 5"}
{"smiles": "Cc1nnn(C)c1-c1cnc2c3ccc(CS(C)(=O)=O)cc3n([C@H](c3ncccc3Cl)C3CCOCC3)c2c1", "note": "[Example 339]", "IC50": "< 5"}
{"smiles": "Cc1nnn(C)c1-c1cnc2c3c(S(C)(=O)=O)cccc3n(C(c3c(F)cc(F)cc3F)C3CCOCC3)c2c1", "note": "(single isomer, unassigned) [Example 117, 5-{9-Methanesulfonyl-5-[oxan-4-yl(2,4,6-trifluorophenyl)methyl]-5H-pyrido[3,2-b]indol-3-yl}-1,4-dimethyl-1H-1,2,3-triazole]", "IC50": "< 5"}
{"smiles": "[2H]C([2H])([2H])c1nnn(C)c1-c1cnc2c3c(OC)cc(S(C)(=O)=O)cc3n([C@H](c3ccccc3F)C3CCOCC3)c2c1", "note": "[Example 198, 5-{5-[(S)-(2-Fluorophenyl)(oxan-4-yl)methyl]-7-methanesulfonyl-9-methoxy-5H-pyrido[3,2-b]indol-3-yl}-4-(^2H3)methyl-1-methyl-1H-1,2,3-triazole]", "IC50": "< 5"}
{"smiles": "[2H]C([2H])([2H])c1onc(C)c1-c1cnc2c3ccc(C(C)(C)O)cc3n([C@H](c3ccccc3F)C3CCOCC3)c2c1", "note": "[Example 285, 2-{5-[(S)-(2-Fluorophenyl)(oxan-4-yl)methyl]-3-[5-(^2H3)methyl-3-methyl-1,2-oxazol-4-yl]-5H-pyrido[3,2-b]indol-7-yl}propan-2-ol]", "IC50": "< 5"}
{"smiles": "Cc1nnn(C)c1-c1cnc2c3ccc(C(C)(C)O)cc3n(C(c3cccc(F)c3)C3CCOCC3)c2c1", "note": "(single isomer, unassigned) [Example 101, 2-[3-(Dimethyl-1H-1,2,3-triazol-5-yl)-5-[(3-fluorophenyl)(oxan-4-yl)methyl]-5H-pyrido[3,2-b]indol-7-yl]propan-2-ol]", "IC50": "< 25"}
{"smiles": "Cn1nnc(CO)c1-c1cnc2c3ccc(S(C)(=O)=O)cc3n([C@H](c3ccccc3)C3CCOCC3)c2c1", "note": "[Example 179, (5-{7-Methanesulfonyl-5-[(S)-oxan-4-yl(phenyl)methyl]-5H-pyrido[3,2-b]indol-3-yl}-1-methyl-1H-1,2,3-triazol-4-yl)methanol]", "IC50": "< 5"}
{"smiles": "Cc1nnn(C)c1-c1cnc2c3ccc(C(C)(C)O)cc3n([C@H](c3ccccc3)C3CCOCC3)c2c1", "note": "(single isomer, unassigned) [Example 54]", "IC50": "< 5"}
{"smiles": "Cc1nnn(C)c1-c1cnc2c3ccc(S(C)(=O)=O)cc3n(C(c3ccccc3)C3CCC(F)(F)CC3)c2c1", "note": "(single isomer, unassigned) [Example 156, 5-{5-[(4,4-Difluorocyclohexyl)(phenyl)methyl]-7-methanesulfonyl-5H-pyrido[3,2-b]indol-3-yl}-1,4-dimethyl-1H-1,2,3-triazole]", "IC50": "< 5"}
{"smiles": "Cc1nnn(C)c1-c1cnc2c3cccc(S(C)(=O)=O)c3n([C@H](c3ccccc3)C3CCOCC3)c2c1", "note": "[Example 376, 5-{6-Methanesulfonyl-5-[(S)-oxan-4-yl(phenyl)methyl]-5H-pyrido[3,2-b]indol-3-yl}-1,4-dimethyl-1H-1,2,3-triazole]", "IC50": "< 5"}
{"smiles": "Cc1noc(C)c1-c1cnc2c3ccc(C(C)(C)O)cc3n([C@@H](c3ccc(F)cc3)C3CCC3)c2c1", "note": "[Example 16]", "IC50": "< 25"}
{"smiles": "Cc1noc(C(C2CCOCC2)n2c3cc(C(C)(C)O)ccc3c3ncc(-c4c(C)nnn4C)cc32)n1", "note": "(single isomer, unassigned) [Example 300]", "IC50": "< 25"}
{"smiles": "COc1ccc(S(C)(=O)=O)c2c1c1ncc(-c3c(C)noc3C)cc1n2[C@H](c1ccccc1)C1CCOCC1", "note": "[Example 185, 4-{6-Methanesulfonyl-9-methoxy-5-[(S)-oxan-4-yl(phenyl)methyl]-5H-pyrido[3,2-b]indol-3-yl}-3,5-dimethyl-1,2-oxazole]", "IC50": "< 5"}
{"smiles": "Cc1nnn(C)c1-c1cnc2c3cc(CCC(C)(C)O)ccc3n([C@H](c3ccccc3)C3CCOCC3)c2c1", "note": "[Example 153, 4-[3-(Dimethyl-1H-1,2,3-triazol-5-yl)-5-[(S)-oxan-4-yl(phenyl)methyl]-5H-pyrido[3,2-b]indol-8-yl]-2-methylbutan-2-ol]", "IC50": "< 5"}
{"smiles": "Cc1nnn(C)c1-c1cnc2c3ccc(C(C)(O)C4CC4)c(F)c3n([C@H](c3ccccc3F)C3CCOCC3)c2c1", "note": "(single isomer, unassigned) [Example 435]", "IC50": "< 5"}
{"smiles": "Cn1nnc(CO)c1-c1cnc2c3ccc(C(C)(C)O)cc3n([C@H](c3ccccc3)C3CCOCC3)c2c1", "note": "[Example 88, (S)-2-(3-(4-(Hydroxymethyl)-1-methyl-1H-1,2,3-triazol-5-yl)-5-(phenyl(tetrahydro-2H-pyran-4-yl)methyl)-5H-pyrido[3,2-b]indol-7-yl)propan-2-ol]", "IC50": "< 5"}
{"smiles": "[2H]C([2H])([2H])c1nnn(C)c1-c1cnc2c3c(OCC)cc(S(C)(=O)=O)cc3n(C(c3ccccc3)C3CCC(F)(F)CC3)c2c1", "note": "[Example 210, 5-{5-[(S)-(4,4-Difluorocyclohexyl)(phenyl)methyl]-9-ethoxy-7-methanesulfonyl-5H-pyrido[3,2-b]indol-3-yl}-4-(^2H3)methyl-1-methyl-1H-1,2,3-triazole]", "IC50": "< 5"}
{"smiles": "Cc1cccnc1C(C1CCOCC1)n1c2cc(C(C)(C)O)ccc2c2ncc(-c3c(C)nnn3C)cc21", "note": "(single isomer, unassigned) [Example 302]", "IC50": "< 5"}
{"smiles": "Cc1noc(C)c1-c1cnc2c3ccc(S(C)(=O)=O)cc3n([C@H](c3ccccc3F)C3CCOCC3)c2c1", "note": "[Example 173]", "IC50": "< 5"}
{"smiles": "COc1cc(C(C)(C)O)cc2c1c1ncc(-c3c(C)nnn3C)cc1n2C(c1ccccc1F)C1CCOCC1", "note": "(single isomer, unassigned) [Example 137, 2-[3-(Dimethyl-1H-1,2,3-triazol-5-yl)-5-[(2-fluorophenyl)(oxan-4-yl)methyl]-9-methoxy-5H-pyrido[3,2-b]indol-7-yl]propan-2-ol]", "IC50": "< 5"}
{"smiles": "COc1cc2c3ncc(-c4c(C)nnn4C)cc3n([C@H](c3ccc(F)cc3)C3CCOCC3)c2cc1C(C)(C)O", "note": "[Example 353, 2-[3-(Dimethyl-1H-1,2,3-triazol-5-yl)-5-[(S)-(4-fluorophenyl)(oxan-4-yl)methyl]-8-methoxy-5H-pyrido[3,2-b]indol-7-yl]propan-2-ol]", "IC50": "< 5"}
{"smiles": "Cc1noc(C)c1-c1cnc2c3ccc(C(C)(C)O)cc3n(Cc3ccc(F)cc3)c2c1", "note": "[Example 48]", "IC50": "< 25"}
{"smiles": "Cc1noc(C)c1-c1cnc2c3ccc(C(C)(C)O)cc3n(C(c3ccccc3)C3CCOCC3)c2c1", "note": "(single isomer, unassigned) [Example 2, 2-[3-(Dimethyl-1,2-oxazol-4-yl)-5-[oxan-4-yl(phenyl)methyl]-5H-pyrido[3,2-b]indol-7-yl]propan-2-ol]", "IC50": "< 5"}
{"smiles": "Cc1nnn(C)c1-c1cnc2c3ccc(C(C)(C)NC(=O)CN(C)C)cc3n(C(c3ccccc3)C3CCOCC3)c2c1", "note": "(single isomer, unassigned) [Example 168, N-{2-[3-(Dimethyl-1H-1,2,3-triazol-5-yl)-5-[oxan-4-yl(phenyl)methyl]-5H-pyrido[3,2-b]indol-7-yl]propan-2-yl}-2-(dimethylamino)acetamide]", "IC50": "< 5"}
{"smiles": "Cc1nnn(C)c1-c1cnc2c3c(F)cc(C(C)(C)O)cc3n(C(c3cccc(F)c3)C3CCOCC3)c2c1", "note": "(single isomer, unassigned) [Example 112, 2-[3-(Dimethyl-1H-1,2,3-triazol-5-yl)-9-fluoro-5-[(3-fluorophenyl)(oxan-4-yl)methyl]-5H-pyrido[3,2-b]indol-7-yl]propan-2-ol]", "IC50": "< 5"}
{"smiles": "Cc1nnn(C)c1-c1cnc2c3ccc(CC(C)(C)O)cc3n([C@H](c3ccccc3)C3CCOCC3)c2c1", "note": "[Example 261, 1-[3-(Dimethyl-1H-1,2,3-triazol-5-yl)-5-[(S)-oxan-4-yl(phenyl)methyl]-5H-pyrido[3,2-b]indol-7-yl]-2-methylpropan-2-ol]", "IC50": "< 5"}
{"smiles": "Cc1noc(C)c1-c1cnc2c3ccc(S(C)(=O)=O)cc3n(C(c3ccccc3)C3CCC(F)(F)CC3)c2c1", "note": "(single isomer, unassigned) [Example 154, 4-{5-[(4,4-Difluorocyclohexyl)(phenyl)methyl]-7-methanesulfonyl-5H-pyrido[3,2-b]indol-3-yl}-3,5-dimethyl-1,2-oxazole]", "IC50": "< 25"}
{"smiles": "Cc1noc(C)c1-c1cnc2c3ccc(S(C)(=O)=O)cc3n([C@@H](c3ccccc3F)C3CCOCC3)c2c1", "note": "[Example 174]", "IC50": "< 5"}
{"smiles": "[2H]C([2H])([2H])c1nnn(C)c1-c1cnc2c3ccc(C(C)(C)O)cc3n(C(c3ncccc3C(F)(F)F)C3CCOCC3)c2c1", "note": "(single isomer, unassigned) [Example 319]", "IC50": "< 5"}
{"smiles": "Cc1nnn(C)c1-c1cnc2c3ccc(C(C)(C)O)cc3n(C(CCC(F)(F)F)c3ccccn3)c2c1", "note": "(single isomer, unassigned) [Example 254, 2-[3-(Dimethyl-1H-1,2,3-triazol-5-yl)-5-[4,4,4-trifluoro-1-(pyridin-2-yl)butyl]-5H-pyrido[3,2-b]indol-7-yl]propan-2-ol]", "IC50": "< 5"}
{"smiles": "Cc1nnn(C)c1-c1cnc2c3c(S(C)(=O)=O)cccc3n(C(c3c(F)cc(F)cc3F)C3CCOCC3)c2c1", "note": "(single isomer, unassigned) [Example 118, 5-{9-Methanesulfonyl-5-[oxan-4-yl(2,4,6-trifluorophenyl)methyl]-5H-pyrido[3,2-b]indol-3-yl}-1,4-dimethyl-1H-1,2,3-triazole]", "IC50": "< 5"}
